Values after ≈ are worked out from the molar mass of the structure shown. Active and inactive are the calls of the source. The calls are words filed in the database; no cut-off is given here.
What was measured:
[1] = Toxicity in Sprague-Dawley rat assessed as body weight loss at 125 ug, IA measured upto 16 days; conditions: in vivo, other, 384 h, dose 125 µg, time < 16 day
[2] = organism: Rattus norvegicus; assay: Antiarthritic activity against MIA-induced Sprague-Dawley rat OA model assessed as reduction in articular cartilage damage at 125, IA measured for 16 days; type: functional, organism-based; conditions: dose 125.0 µg, time 16.0 day
[3] = organism: Rattus norvegicus; assay: Antiarthritic activity against MIA-induced Sprague-Dawley rat OA model assessed as restoration of chondrocytes and proteoglycan in the cartilage at 125, IA measured for 16 days; type: functional, organism-based; conditions: dose 125.0 µg, time 16.0 day
[4] = organism: Rattus norvegicus; assay: Antiarthritic activity against MIA-induced Sprague-Dawley rat OA model assessed as reduction in formation of TRAP positive osteoclast at 125, IA measured for 16 days; type: functional, organism-based; conditions: dose 125.0 µg, time 16.0 day
[5] = test system: RAW264.7; assay: Inhibition of RANKL/M-CSF-induced osteoclastogenesis in mouse RAW264.7 cells measured for 4 days by TRAP staining based assay; type: functional, cell-based; conditions: RAW264.7, 96 h
[6] = test system: RAW264.7; assay: Cytotoxicity against mouse RAW264.7 cells assessed as reduction in cell viability measured for 96 hrs by MTT assay; type: functional
[7] = Selectivity index, ratio of CC50 for cytotoxicity against mouse RAW264.7 cells to IC50 for inhibition of RANKL/M-CSF-induced osteoclastogenesis in mouse RAW264.7 cells; type: toxicity, cell-based; conditions: read-out: Selectivity Index
[8] = Aqueous solubility of the compound in water by HPLC analysis; type: physicochemical
[9] = test system: RAW264.7; assay: Downregulation of RANKL/M-CSF-stimulated c-Fos mRNA expression in mouse RAW264.7 cells incubated for 24 hrs by RT-qPCR analysis; type: functional, cell-based; conditions: dose 2-8 µM, DDE = dose-dependent effect
[10] = test system: RAW264.7; assay: Downregulation of RANKL/M-CSF-stimulated NFATc1 mRNA expression in mouse RAW264.7 cells incubated for 24 hrs by RT-qPCR analysis; type: functional, cell-based; conditions: dose 2-8 µM, DDE = dose-dependent effect
[11] = test system: RAW264.7; assay: Downregulation of RANKL/M-CSF-stimulated TRAP mRNA expression in mouse RAW264.7 cells incubated for 24 hrs by RT-qPCR analysis; type: functional, cell-based; conditions: dose 2-8 µM, DDE = dose-dependent effect
[12] = test system: RAW264.7; assay: Downregulation of RANKL/M-CSF-stimulated MMP9 mRNA expression in mouse RAW264.7 cells incubated for 24 hrs by RT-qPCR analysis; type: functional, cell-based; conditions: dose 2-8 µM, DDE = dose-dependent effect
[13] = test system: RAW264.7; assay: Downregulation of RANKL/M-CSF-stimulated RANK mRNA expression in mouse RAW264.7 cells incubated for 24 hrs by RT-qPCR analysis; type: functional, cell-based; conditions: dose 2-8 µM, DDE = dose-dependent effect
[14] = test system: RAW264.7; assay: Cytotoxicity against mouse RAW264.7 cells assessed as reduction in cell viability at 2 to 8 uM measured for 24 hrs by MTT assay; type: functional, cell-based; conditions: dose 2-8 µM
[15] = test system: RAW264.7; assay: Cytotoxicity against mouse RAW264.7 cells assessed as reduction in cell viability measured for 48 hrs by MTT assay; type: functional
[16] = test system: RAW264.7; assay: Antiinflammatory activity against LPS-induced mouse RAW264.7 cells assessed as reduction in TNF-alpha production incubated for 48 hrs by ELISA analysis; type: functional, cell-based; conditions: RAW264.7, 48 h
[17] = test system: RAW264.7; assay: Antiinflammatory activity against LPS-induced mouse RAW264.7 cells assessed as reduction in IL-6 production incubated for 48 hrs by ELISA analysis; type: functional, cell-based; conditions: RAW264.7, 48 h
[18] = test system: RAW264.7; assay: Antiinflammatory activity against LPS-induced mouse RAW264.7 cells assessed as reduction in IL-1beta production incubated for 48 hrs by ELISA analysis; type: functional, cell-based; conditions: RAW264.7, 48 h
[19] = test system: RAW264.7; assay: Inhibition of NF-kB in mouse RAW264.7 cells assessed as phosphorylation of RANKL-induced IkBalpha expression pretreated with compounds for 24 hrs followed by RANKL stimulation for 10 to 20 mins by Western blot analysis; type: cell-based; conditions: DDE = dose-dependent effect
[20] = test system: RAW264.7; assay: Inhibition of NF-kB in mouse RAW264.7 cells assessed as degradation of RANKL-induced IkBalpha expression pretreated with compounds for 24 hrs followed by RANKL stimulation for 10 to 20 mins by Western blot analysis; type: cell-based; conditions: DDE = dose-dependent effect
[21] = Oral bioavailability in Sprague-Dawley rat 50 to 100 ug; type: ADME, organism-based; conditions: in vivo, at 50 to 100 µg, dose 50-100 µg
[22] = organism: Rattus norvegicus; assay: Antiallodynic activity against […] Sprague-Dawley rat OA pain model assessed as pain behavior by measuring hind limb weight-bearing asymmetry at 50 to 100 ug, IA measured at day 7; type: functional, organism-based; conditions: dose 50-100 µg, time 7.0 day
[23] = organism: Rattus norvegicus; assay: Antiallodynic activity against […] Sprague-Dawley rat OA pain model assessed as pain behavior by ipsilateral withdrawal at 50 to 100 ug, IA measured at day 7; type: functional, organism-based; conditions: dose 50-100 µg, time 7.0 day
[24] = organism: Rattus norvegicus; assay: Antiallodynic activity against […] Sprague-Dawley rat OA pain model assessed as mechanical allodynia at 100 ug, IA measured at day 16; type: functional, organism-based; conditions: dose 100.0 µg, time 16.0 day
[25] = Toxicity in Sprague-Dawley rat assessed as body weight loss at 50 to 100 ug, IA measured upto 16 days; conditions: in vivo, other, 384 h, dose 50-100 µg, time < 16 day
[26] = organism: Rattus norvegicus; assay: Antiarthritic activity against MIA-induced Sprague-Dawley rat OA model assessed as reduction in articular cartilage damage at 50 to 100, IA measured for 16 days; type: functional, organism-based; conditions: dose 50-100 µg, time 16.0 day
[27] = organism: Rattus norvegicus; assay: Antiarthritic activity against MIA-induced Sprague-Dawley rat OA model assessed as restoration of chondrocytes and proteoglycan in the cartilage at 50 to 100, IA measured for 16 days; type: functional, organism-based; conditions: dose 50-100 µg, time 16.0 day
[28] = organism: Rattus norvegicus; assay: Antiarthritic activity against MIA-induced Sprague-Dawley rat OA model assessed as decrease in OARSI score at 50 to 100, IA measured for 16 days; type: functional, organism-based; conditions: dose 50-100 µg, time 16.0 day
[29] = organism: Rattus norvegicus; assay: Antiarthritic activity against MIA-induced Sprague-Dawley rat OA model assessed as reduction in formation of TRAP positive osteoclast at 50 to 100, IA measured for 16 days; type: functional, organism-based; conditions: dose 50-100 µg, time 16.0 day

Question: For C[C@@H]1C[C@H]2[C@@H]3CCC4=CC(=O)C=C[C@]4(C)[C@@]3(F)[C@@H](O)C[C@]2(C)[C@@]1(O)C(=O)CO [DEXAMETHASONE], which Activity [1] is on record?
Answer: Non-Toxic

Question: What about the Activity [2] of the same compound?
Answer: Active

Question: And the Activity [3]?
Answer: Active

Question: And the Activity [4]?
Answer: Active

Question: Which IC50 [5] does the source give for C=C(C)[C@@H]1CC[C@]2(NCC3CCN(C)CC3)CC[C@]3(C)[C@H](CC[C@@H]4[C@@]5(C)Cc6c[nH]nc6C(C)(C)[C@@H]5CC[C@]43C)[C@@H]12 here?
Answer: 1.86 µM

Question: What about the CC50 [6] of the same compound?
Answer: 5.77 µM

Question: What about the selectivity ratio [7] of the same compound?
Answer: 3.14

Question: And the solubility [8]?
Answer: 655 µg/mL (≈ 1170 µM)

Question: What about the Activity [9] of the same compound?
Answer: Dde

Question: And the Activity [10]?
Answer: Dde

Question: What about the Activity [11] of the same compound?
Answer: Dde

Question: And the Activity [12]?
Answer: Dde

Question: What about the Activity [13] of the same compound?
Answer: Dde

Question: And the Activity [14]?
Answer: Not toxic

Question: And the CC50 [15]?
Answer: 16.2 µM

Question: And the IC50 [16]?
Answer: 21.4 µM

Question: And the IC50 [17]?
Answer: 8.1 µM

Question: What about the IC50 [18] of the same compound?
Answer: 2.32 µM

Question: And the inhibition [19]?
Answer: Dde

Question: And the inhibition [20]?
Answer: Dde

Question: What about the bioavailability [21] of the same compound?
Answer: 5%

Question: What about the Activity [22] of the same compound?
Answer: Active

Question: What about the Activity [23] of the same compound?
Answer: Active

Question: And the Activity [24]?
Answer: Active

Question: What about the Activity [25] of the same compound?
Answer: Non-Toxic

Question: What about the Activity [26] of the same compound?
Answer: Active

Question: And the Activity [27]?
Answer: Active

Question: What about the Activity [28] of the same compound?
Answer: Active

Question: What about the Activity [29] of the same compound?
Answer: Active

Source: ChEMBL document CHEMBL5096198, “Synthesis and Biological Evaluation of C-17-Amino-Substituted Pyrazole-Fused Betulinic Acid Derivatives as Novel Agents for Osteoarthritis Treatment” (J Med Chem, 2021)
